# Measured values published in patent US6242199A, “Assays for growth hormone secretagogue receptors” (Merck & Co., Inc., priority 1998, dated 2001).
# What was measured:
# [1] = tested on: swine Type II GHSR; experiment: Aequorin bioluminescence assay in Xenopus oocytes, swine Type II GHSR; type: cell-based; details: swine Type II-derived cRNA truncated in TM-6
# Experimental: (§1) Xenopus laevis oocytes were isolated and injected using standard methods previously described by Arena, et. al. 1991, Mol. Pharmacol. 40, 368-374, which is hereby incorporated by reference. Adult female Xenopus Laevis frogs (purchased from Xenopus One, Ann Arbor, Mich.) were anesthetized with 0.17% tricaine methanesulfonate and the ovaries were surgically removed and placed in a 60 mm culture dish (Falcon) containing OR-2 medium without calcium (82.5 mM NaCl, 2 mM KCl, 2.5 mM sodium pyruvate, 1 mM MgCl2, 100 μ/ml penicillin, 1 mg/ml streptomycin, 5 mM HEPES, pH=7.5; ND-96 from Specialty Media, NJ). Ovarian lobes were broken open, rinsed several times, and oocytes were released from their sacs by collagenase A digestion (Boehringer-Mannheim; 0.2% for 2-3 hours at 18° C.) in calcium-free OR-2. […]
# (§2) The ABA requires injection of library pool cRNA (25 ng/egg for pool sizes of 500 to 10,000) with aequorin cRNA (2 ng/egg) supplemented with the G-protein alpha subunit Gα11 (2 ng/egg). […] Polymerase chain reaction (PCR) was utilized to generate a DNA fragment corresponding to the open reading frame (ORF) of the aequorin cDNA with an optimized Kosak translational initiation sequence (Inouye, S. et. al., 1985, Proc. Natl. Acad. Sci. USA 82:3154-3158). […]
# [2] = tested on: human Type II GHSR; experiment: Aequorin bioluminescence assay in Xenopus oocytes, human Type II GHSR; type: cell-based; details: human Type II-derived cRNA truncated in TM-6
# Experimental: as §1, §2
# [3] = tested on: rat GHSR type Ia; experiment: Aequorin bioluminescence in transfected 293-AEQ17 (HEK-293) cells, rat GHSR; type: cell-based; details: three replicate samples; mobilization of intracellular calcium
# Experimental: Functional activity of the ORF construct was assessed by transfecting (using lipofectamine; GIBCO/BRL) 5 μg of plasmid DNA into the aequorin expressing reporter cell line (293-AEQ17) cultured in 60 mm dishes. Following approximately 40 hours of expression the aequorin in the cells was charged for 2 hours with coelenterazine, the cells were harvested, washed and pelleted by low speed centrifugation into luminometer tubes. Functional activity was determined by measuring Compound A dependent mobilization of intracellular calcium and concommitant calcium induced aequorin bioluminescence.
# [4] = tested on: swine growth hormone secretagogue receptor (GHSR); experiment: Aequorin bioluminescence assay in Xenopus oocytes injected with swine pituitary mRNA / cDNA library pool or clone cRNA; type: cell-based; details: 1 μM
# Experimental: as §1, §2
# [5] = tested on: human Type I GHSR; experiment: Aequorin bioluminescence assay in Xenopus oocytes, human Type I GHSR; type: cell-based; details: human Type I cRNA in oocytes; tested from 1 μM down
# Experimental: as §1, §2
# [6] = target: T1, growth hormone secretagogue receptor (GHSR), porcine anterior pituitary membranes (Sus scrofa, UniProt Q95254); experiment: [35S]-Compound A radioreceptor binding, porcine anterior pituitary membranes
# T1 construct: Frozen anterior pituitary glands from male swine (50-80 Kg); from tissue; host or cells: anterior pituitary glands of male swine (50-80 kg), crude membranes
# Experimental: Frozen anterior pituitary glands from male swine (50-80 Kg) or from the Wistar male rats (150-200 g) were homogenized in a tissue homogenizer in ice-cold buffer (50 mM Tris-HCl buffer, pH 7.4, 5 mM MgCl2, 2.5 mM EDTA, 0.1% bovine serum albumin and 30 μg/ml bacitracin). The homogenates were centrifuged for 5 min at 1,400×g and the resulting supernatants were then centrifuged at 34,000×g for 20 min. The pellets were resuspended in same buffer to a 1,500 μg protein/ml and stored at -80° C. Protein was determined by a Bio-Rad method (Bio-Rad Laboratories, Richmond, Calif.).
# Aliquots were incubated at 20° C. for 60 min and bound radioligand was separated from free by filtration through GF/C filters pretreated with 0.5% of polyethylenimine in a Brandel cell harvester. […] Assays were carried out in triplicate and experiments repeated at least three times.
# T1 sequence (Q95254 whole entry): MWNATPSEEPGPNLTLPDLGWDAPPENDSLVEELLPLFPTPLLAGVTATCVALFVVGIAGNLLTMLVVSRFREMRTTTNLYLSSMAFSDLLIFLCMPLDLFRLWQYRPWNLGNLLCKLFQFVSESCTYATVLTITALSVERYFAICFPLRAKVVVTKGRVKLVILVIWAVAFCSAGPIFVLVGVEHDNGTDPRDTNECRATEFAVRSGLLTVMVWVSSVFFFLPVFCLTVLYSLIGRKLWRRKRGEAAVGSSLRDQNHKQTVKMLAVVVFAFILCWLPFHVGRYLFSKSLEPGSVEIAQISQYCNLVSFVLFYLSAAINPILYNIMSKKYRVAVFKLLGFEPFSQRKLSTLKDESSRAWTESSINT
compound,measurement,setting,value
"CC(C)(N)C(=O)N[C@H](COCc1ccccc1)C(=O)N1CCC2(CC1)CN(S(C)(=O)=O)c1ccccc12 [Compound A, (N-[1(R)-[1,2-dihydro-1-methanesulfonlylspiro[3H-indole-3,4'-piperidin]-1'-yl)carbonyl]-2-(phenylmethyloxy)-ethyl]-2-amino-2-methyl-propanamide]",response (in words),[1],failed to give a response
same,response (in words),[2],failed to give a response
same,Compound A induced luminescent response (in words),[3],Compound A induced luminescent responses
same,bioluminescence response (in words),[4]; clones 7-3 and 28-18,positive bioluminescence response
same,bioluminescent signal (in words),[4]; pool P541,positive bioluminescent signal
same,lowest Compound A concentration giving a response,[5],0.1 nM
same,specific binding of [35S]-Compound A detected in the absence of Mg2+,"[6]; absence of Mg2+, in comparison with control (10 mM Mg2+)",15-25%
same,Ki,"[6]; competition with [35S]-Compound A, read-out: inhibition constant, Ki",0.24 nM
same,concentration (Bmax),"[6]; porcine anterior pituitary membranes, Scatchard analysis, n=4",6.3±0.6 fmol/mg of protein
same,Kd,"[6]; porcine anterior pituitary membranes, Scatchard analysis, n=4, read-out: apparent dissociation constant (KD)",0.161 ± 0.011 nM
same,specific binding of total binding,"[6]; porcine membranes, nonspecific in 500 nM unlabeled Compound A",65-85%
same,displacement of / competition with [35S]-Compound A binding (in words),"[6]; unlabeled competitor, FIG. 24",completely displaced
